Test results taken from patent US12691124B2, “Methods of controlling and improving brain health” (ICAHN SCHOOL OF MEDICINE AT MOUNT SINAI, priority 2019, dated 2026).

Key:
[1] = target: T1, BRD2 (Mus musculus, UniProt Q7JJ13); experiment: ChIP sequencing of BRD2 chromatin occupancy in neurons; type: cell-based
T1 construct: Primary cortical neurons express BRD2/3/4, with BRD2 and BRD4 being the most abundant; endogenous in cells; host or cells: primary cortical neuronal cultures (mouse)
Procedure: Chromatin Immunoprecipitation with Sequencing. Primary cortical neuronal cultures were washed once with PBS then fixed for 10 minutes with a 1% formaldehyde solution in PBS with protease inhibitors (Sigma #P8340) at room temperature. Fixation was quenched adding glycine to a final concentration of 0.125M (5 minutes, room temperature). 10e6 fixed cells were resuspended in 1 ml of lysis buffer (50 mM Hepes KOH, pH7.5, 140 mM NaCl, 1 mM EDTA, 10% glycerol, 0.5% NP-40, 0.25% Triton X-100) and 10 ul of protease inhibitor cocktail (PIC). Samples were rotated for 10 minutes at 4 degrees then spun at 1350 g at 4 C for 10 minutes. Pellets were resuspended in 1 ml of lysis buffer 2 (10 mM Tris-HCl pH8.0, 200 mM NaCl, 1 mM EDTA, 0.5 mM EGTA) and 10 ul PIC.). 5e6 nuclei were sonicated in lysis buffer 3 (10 mM Tris-HCl pH8.0, 100 mM NaCl, 1 mM EDTA, 0.5 mM EGTA, 0.1% Na-Deoxicholate, 0.5% N-Lauroylsarcosine) at 4 degrees for 5 cycles of 30 seconds ON/30 seconds OFF using the Diagenode bioruptor. After, 30 ul of 10% Triton-X100 was added to each sample and then spun for 15 minutes at 20,000 g at 4 degrees. Sonication efficiency was checked by running the samples on a 2% agarose gel to confirm enrichment for fragments from 200-500 bps.
Streptavidin M-280 dynabeads were blocked with 0.5% BSA solution and coupled to 7 ug of antibody (Brd4 #Ab84778, Brd2 Bethyl #A302-583A, Pol2 Ser5 #Ab5408) for at least 8 hours at 4 degrees, rotating. Antibody-coupled beads were then added to sonicated chromatin (20e6 cells for Brd2/Brd4, 10e6 for Pol2) and incubated overnight at 4 degrees. After washing the IPs eight times with wash buffer (50 mM Hepes-KOH pH7.6, 100 mM LiCl, 1 mM EDTA, 1% NP-40, 0.7% Na-Deoxycholate) and once with TE buffer (10 mM Tris-HCl, 1 mM EDTA, 50 mM NaCl), Chromatin was eluted from magnetic beads in 200 ul elution buffer ([…] Tris-HCl pH8.0, 10 mM EDTA, 1% SDS) for 45 minutes at 65 degrees. Samples were de-crosslinked overnight at 65 degrees and proteins and RNA were removed by incubating with RNAse and proteinase k. Samples were purified using the Qiagen PCR purification kit according to the manufacturers protocol.
Samples were end-repaired using the End-IT DNA End-Repair Kit (#ER0720). After 45 minutes incubation, samples were purified using the Qiagen PCR Clean up kit as described above. Samples were adenylated using a reaction mix (200 uM dATP, 1× Klenow buffer NEB2, Klenow Fragment (3′ to 5′ exo-), NEB M0212L) and incubating at 37 degrees for 30 minutes. […] Raw sequencing reads were then aligned to the mouse mm9 genome using the default settings of Bowtie (v2.2.0)87. Only uniquely mapped reads were retained, and the alignments were subsequently filtered using the SAMtools package (v0.1.19)88 to remove duplicate reads. […]

[2] = tested on: primary cortical neurons; experiment: Polar metabolite mass spectrometry in primary cortical neurons; type: cell-based, mouse
Procedure: Mass Spectrometry. Cell culture plates (2e6 cells per well n=7-8 per group) were washed with 75 mM Ammonium bicarbonate, pH 7.4, warmed to 37 degrees. Plates were quenched on liquid nitrogen for 10 seconds and then placed on dry ice. 1 ml of 70% Ethanol in MS-grade water was warmed to 75 degrees and added to each well. Plates were incubated in a 75 degree water bath for 3 minutes, shaking gently every minute. After 3 minutes, plates were placed on dry ice and once cooled, supernatants were lyophilized using the speed vacuum and stored at −80 degrees. Samples were shipped on dry ice to Cellzome who processed the samples for mass spectrometry and performed the initial analysis annotating metabolites. A semi-quantitative approach was used which determines the metabolite levels relative to a control rather than absolute concentrations. All detected ions were used for statistical analysis regardless of how many samples they were detected. This allows for the identification of low-abundant metabolites that may be present in only a subset of samples.
If IBET858 is indeed decreasing metabolism as indicated, comprehensive metabolic changes after BET inhibition should be observed. Therefore, an unbiased analysis of polar metabolites via mass spectrometry was employed (FIGS. 12A-12C). Accordingly, the levels of 100-150 unique metabolites are changed by chronic BET inhibition in primary cortical neurons.

T1 sequence (Q7JJ13 whole entry): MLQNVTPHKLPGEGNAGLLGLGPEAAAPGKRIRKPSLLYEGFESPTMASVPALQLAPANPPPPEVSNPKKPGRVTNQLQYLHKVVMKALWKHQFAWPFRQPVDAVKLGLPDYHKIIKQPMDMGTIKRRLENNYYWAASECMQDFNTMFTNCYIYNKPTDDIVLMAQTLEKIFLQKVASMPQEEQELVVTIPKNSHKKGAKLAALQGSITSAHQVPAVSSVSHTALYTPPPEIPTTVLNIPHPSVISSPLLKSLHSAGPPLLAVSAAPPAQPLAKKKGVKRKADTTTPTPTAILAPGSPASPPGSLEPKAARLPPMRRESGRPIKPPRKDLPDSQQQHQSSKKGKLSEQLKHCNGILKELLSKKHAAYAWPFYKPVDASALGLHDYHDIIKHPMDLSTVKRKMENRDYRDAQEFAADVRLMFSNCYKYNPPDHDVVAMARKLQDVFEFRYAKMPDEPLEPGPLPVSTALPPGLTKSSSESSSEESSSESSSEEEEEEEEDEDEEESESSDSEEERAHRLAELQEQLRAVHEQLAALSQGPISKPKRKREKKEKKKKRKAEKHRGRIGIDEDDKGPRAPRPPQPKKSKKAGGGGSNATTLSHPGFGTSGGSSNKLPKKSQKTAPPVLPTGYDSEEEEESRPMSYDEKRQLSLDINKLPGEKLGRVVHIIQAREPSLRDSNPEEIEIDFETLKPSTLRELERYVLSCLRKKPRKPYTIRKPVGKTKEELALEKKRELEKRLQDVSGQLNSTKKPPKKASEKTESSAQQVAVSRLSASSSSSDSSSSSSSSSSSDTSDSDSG

In the case of `CC(=O)N1c2ccc(-c3ccc(CN4CCCCC4)cc3)cc2[C@H](Nc2ccccc2)CC1C` (stereo in doubt) [IBET858], the “genes that lose BRD2 at the transcriptional start site” value ([1]; 6 h IBET858) is reported as 1497 genes, the “genes with gain of BRD2 at the transcriptional start site” value ([1]; 6 h IBET858) is reported as 828 genes and the “loci with reduced occupancy of BRD2” value ([1]; DIV7, 6 h IBET858) is reported as 2099 loci. The “loci with increased occupancy of BRD2” value ([1]; day 7, 6 h IBET858) was 1680 loci, the “enrichment of decreased metabolites, Arginine/Proline metabolism (OR)” value ([2]; 1 week IBET858) was 26.8 and the “enrichment of decreased metabolites, Glutamate metabolism (OR)” value ([2]; 1 week IBET858) was 24.4. The “enrichment of decreased metabolites, Tyrosine metabolism (OR)” value ([2]; 1 week IBET858) was 30.33, the “enrichment of decreased metabolites, glycolysis (OR)” value ([2]; 1 week IBET858) was 48.8 and the “enrichment of decreased metabolites, pentose phosphate pathway (OR)” value ([2]; 1 week IBET858) was 42. For the same compound, the “enrichment of increased metabolites, aspartate metabolism pathway (OR)” value ([2]; 1 week IBET858) was 23.5, the “amino acids significantly decreased” value ([2]; 1 week IBET858, 13/20) was 65% and the unique metabolites changed ([2]; chronic BET inhibition (1 week)) was 100-150 metabolites.
